Laboratory results: patent US11226340B2, “Therapeutically triggering an innate immune response in a target tissue” (priority 2016, dated 2022)

Experiments:
[1] = tested on: B16 melanoma; assay: Cancer antigen (gp100) potentiation in B16 melanoma lung model; type: in vivo, mouse; settings: K. pneumoniae-pre-exposed mice; day +14
[2] = tested on: B16 melanoma; assay: STING agonist combined with SSI in B16 melanoma lung model; type: in vivo, mouse; settings: day +14
Description: The anti-tumour efficacy of QBKPN SSI in combination with the STING agonist 2′2′-cGMAP (inVivoGen) was evidenced in C57Bl/6 mice, as follows. On ˜day −31, mice were infected with K. pneumoniae (2.5×10^5 cells/mouse) by oropharyngeal instillation after being anaesthetized with isofluorane, then rested. Within 5-7 days, all mice were fully recovered from K. pneumonia challenge. Starting on day −10, some mice were S.C. injected with QBKPN SSI; mice were injected every other day from Day −10 to day +12. Injections were performed in rotating sites at a dose of 0.03 ml of a 5.0 OD suspension. On days −10, −6, and −4, some mice were also treated with STING agonist (SC injection of 10 μg/mouse in 20 μl of saline), either co-mixed with SSI or s.c. in a distal site (nape). On Day 0, mice were challenged with B16 melanoma by tail-vein (I.V.) injection of singlecell suspensions of tumour cells (2.0×10^5 cells/mouse). On day +14, plasma was collected for ELISA, then mice were sacrificed and visual metastases counted and recorded. Serum was collected into heparin-containing tubes, then centrifuged to remove cells. ELISA (RND Systems DuoSet DY485, limit of detection […]) was performed per the manufacturer's protocol. […] Statistical differences were evaluated by unpaired T test (GraphPad PRISM).

Compound | tumour burden (metastatic-like B16 melanoma in the lungs) [1] | tumour burden (tumour nodules in the lungs) ([2]; K. pneumoniae-pre-exposed mice) | circulating (plasma) levels of IFN-γ [2]
KVPRNQDWL [gp100, melanoma-specific antigen gp100 25-33 peptide] | no significant effect | – | –
Nc1nc2c(ncn2[C@@H]2O[C@@H]3COP(=O)(O)O[C@@H]4[C@H](O)C(COP(=O)(O)O[C@@H]2C3O)O[C@H]4n2cnc3c(N)ncnc32)c(=O)[nH]1 (stereo partly drawn) [STING agonist, 2′2′-cGMAP] | – | reduced tumour burden (p=0.0038) | enhanced circulating levels of IFN-γ
